Reference: patent US20210252045A1, “Method for inactivating and removing disease-related levels of sulfane sulfur from affected biological tissues with special relevance to Covid-19 virus infection” (priority 2019, published 2021)

Columns and labels:
[1] = sulfur dioxide gas in water at pH above 3; cited from earlier work
[2] = tested on: Rhinovirus of the common cold; experiment: Ingesting sulfite at first symptoms of the common cold (inventor's self-administration); format: in vivo; conditions: oral, 250 mg every 4 hours for 24 hours, started at first symptoms (within 48 hours); the inventor themself
Protocol: It appears to be important that this be started within 48 hours of first appearance of the symptoms although data is lacking on using the agent later in the course of the infection. The stated quantities are effective but might be refined. The total quantity in the above example is equivalent to drinking 4 bottles of some wines or ingesting 500 gm of certain dried fruits. Application of this example to Covid 19 would be a first TREATMENT for this disease.

In the case of `O=S(O)O` [sulfurous acid], the pKa2 [1] is given as roughly 7.

For `O=S([O-])S(=O)(=O)[O-].[K+].[K+]` [K. metabisulfite], the “course of common cold symptoms after ingestion” value [2] was “symptoms clear without progressing to a full cold”.
